Experimental data published in patent publication US8124840B2, “Regulating metabolism by modifying the level of trehalose-6-phosphate” (Syngenta Mogen B.V., priority 1996, dated 2012).

Columns and labels:
[1] = test system: trehalases from various sources; conditions: cited from earlier work
α- or β-glycohydrolase = conditions: except for trehalase; cited from earlier work
potato microtubers = test: Trehalose accumulation in potato microtubers induced on medium with Validamycin A; format: in vivo, Solanum tuberosum cv. Kardal; conditions: for Trehalose (% fresh weight): +Validamycin A 10^−3 M
Description: Stem segments of in vitro potato plants harbouring an auxiliary meristem were transferred to micro-tuber inducing medium. Micro-tuber inducing medium contains 1 X MS-salts supplemented with R3 vitamins, 0.5 g/l MES (final pH=5.8, adjusted with KOH) and solidified with 8 g/l Daichin agar, 60 g/l sucrose and 2.5 mg/l kinetin. After 3 to 5 weeks of growth in the dark at 24° C., micro-tubers were formed.
(§1) Validamycin A was isolated from Solacol, a commercial agricultural formulation (Takeda Chem. Indust., Tokyo) as described by Kendall et al. (1990) Phytochemistry 29, 2525. The procedure involves ion-exchange chromatography (QAE-Sephadex A-25 (Pharmacia), bed vol. 10 ml, equilibration buffer 0.2 mM Na-Pi pH 7) from a 3% agricultural formulation of Solacol. Loading 1 ml of Solacol on the column and eluting with water in 7 fractions, practically all Validamycin was recovered in fraction 4. Based on a 100% recovery, using this procedure, the concentration of Validamycin A was adjusted to 1.10^−3 M in MS-medium, for use in trehalose accumulation tests. Alternatively, Validamycin A and B may be purified directly from Streptomyces hygroscopicus var. limoneus, as described by Iwasa et al. (1971) J. Antibiot. 24, 119, the content of which is incorporated herein by reference.
Carbohydrates were determined quantitatively by anion exchange chromatography with pulsed electrochemical detection. Extracts were prepared by extracting homogenized frozen material with 80% EtOH. After extraction for 15 minutes at room temperature, the soluble fraction is evaporated and dissolved in distilled water. Samples (25 μl) were analyzed on a Dionex DX-300 liquid chromatograph equipped with a 4×250 mm Dionex 35391 carbopac PA-1 column and a 4×50 mm Dionex 43096 carbopac PA-1 precolumn. Elution was with 100 mM NaOH at 1 ml/min followed by a NaAc gradient. Sugars were detected with a pulsed electrochemical detector (Dionex, PED). Commercially available carbohydrates (Sigma) were used as a standard.
Potato Solanum tuberosum cv. […] The presence of small amounts of trehalose in wild-type plants indicates the presence of a functional trehalose biosynthetic pathway.
Evidence for the presence of a trehalose biosynthesis pathway in tobacco was obtained by culturing wild-type plants in the presence of 10^−3M of the trehalase inhibitor Validamycin A. The treated plants accumulated very small amounts of trehalose, up to 0.0021% (fw). Trehalose accumulation was never detected in any control plants cultured without inhibitor. Similar data were obtained with wild-type microtubers cultured in the presence of Validamycin A. Ten out of seventeen lines accumulated on average 0.001% trehalose (fw)/(Table 4).

wild-type tobacco plants = test: Trehalose accumulation in wild-type tobacco plants cultured with Validamycin A; format: in vivo; conditions: wild-type tobacco plants cultured with 10^−3M Validamycin A
Description: as §1, with “1.10^-3” for “1.10^−3”, “reference. Carbohydrates were determined quantitatively by anion exchange chromatography with pulsed electrochemical detection. […] Samples (25 μl) were analyzed on a Dionex DX-300 liquid chromatograph equipped with a 4×250 mm Dionex 35391 carbopac PA-1 column and a 4×50 mm Dionex 43096 carbopac PA-1 precolumn. […] Sugars were detected with a pulsed electrochemical detector (Dionex, PED). […] Trehalose accumulation was never detected in any control plants cultured without inhibitor. […]” for “reference.”

hexokinase = test: Hexokinase assay on mouse hybridoma cell extract with/without trehalose-6-phosphate; format: biochemical; conditions: for V2 (ODU/min): hexokinase rate with T6P
Description: Hexokinase activity was measured in an assay containing 0.1 M Hepes-KOH pH 7.0, 4 mM MgCl2, 5 mM ATP, 0.2 mM NADP^+, 10 U/ml Creatine Phosphate Kinase (dissolved in 50% glycerol, 0.1% BSA, 50 mM Hepes pH 7.0), 3.5 mM Creatine Phosphate, 7 U/ml Glucose-6-Phosphate Dehydrogenase and 2 mM Glucose by measuring the increase in OD at 340 nm at 25° C.
When 2 mM Fructose was used instead of glucose as substrate for the hexokinase reaction, 3.8 U/ml Phosphoglucose Isomerase was included. Alternatively, a hexokinase assay as described by Gancedo et al. (1977) J. Biol. Chem. 252, 4443 was used.
A hexokinase assay was performed using glucose or fructose as substrate under conditions as described by Gancedo et al. (see above). Mouse hybridoma cells were subjected to osmotic shock by exposing a cell pellet to 20% sucrose, followed by distilled water. This crude protein extract was used in the hexokinase assay (50 μl) extract corresponding to ca. 200 μg protein).

[2] = substrate Fructose 20 mM, T6P 0.23
[3] = substrate Fructose 20 mM, T6P 0.43
[4] = substrate Fructose 20 mM, T6P 0.83
[5] = substrate Fructose 20 mM, T6P 1.67
[6] = substrate Glucose 2 mM, T6P 0.83
[7] = substrate Glucose 20 mM, T6P 0.83
[8] = substrate Glucose 100 mM, T6P 0.83

**Q.** Which IC50 [1] does the source give for `OCC1=C[C@@H](N[C@H]2C[C@H](CO)[C@@H](O[C@H]3O[C@@H](CO)[C@H](O)[C@@H](O)[C@@H]3O)[C@H](O)[C@H]2O)[C@H](O)[C@@H](O)[C@@H]1O` [Validamycin A] here?
**A.** 0.1 to 1000 nM

**Q.** What about the “Inhibition of α- or β-glycohydrolase activity” value (α- or β-glycohydrolase) of the same compound?
**A.** does not significantly inhibit

**Q.** And the “Trehalose (% fresh weight)” value (potato microtubers; microtubers of pMOG845 line 845-2)?
**A.** 0.016 % fresh weight

**Q.** What about the “Trehalose (% fresh weight)” value (potato microtubers; microtubers of pMOG845 line 845-8) of the same compound?
**A.** 0.051 % fresh weight

**Q.** And the “Trehalose (% fresh weight)” value (potato microtubers; microtubers of pMOG845 line 845-11)?
**A.** 0.015 % fresh weight

**Q.** What about the “Trehalose (% fresh weight)” value (potato microtubers; microtubers of pMOG845 line 845-13) of the same compound?
**A.** 0.011 % fresh weight

**Q.** What about the “Trehalose (% fresh weight)” value (potato microtubers; microtubers of pMOG845 line 845-22) of the same compound?
**A.** 0.112 % fresh weight

**Q.** And the “Trehalose (% fresh weight)” value (potato microtubers; microtubers of pMOG845 line 845-25)?
**A.** 0.002 % fresh weight

**Q.** And the “Trehalose (% fresh weight)” value (potato microtubers; microtubers of pMOG845 line 845-28)?
**A.** 0.109 % fresh weight

**Q.** What about the “Trehalose (% fresh weight)” value (potato microtubers; microtubers of wild type Kardal) of the same compound?
**A.** 0.001 % fresh weight

**Q.** And the “Trehalose level in microtubers versus medium without Validamycin A” value (potato microtubers; transgenic (pMOG845) and wild-type microtubers, 10^−3 M Validamycin A)?
**A.** elevated levels of trehalose

**Q.** What about the “Trehalose accumulation, average” value (potato microtubers; wild-type microtubers cultured with Validamycin A, ten out of seventeen lines) of the same compound?
**A.** 0.001 % trehalose (fw)

**Q.** What about the Trehalose accumulation (wild-type tobacco plants) of the same compound?
**A.** up to 0.0021 % (fw)

**Q.** For `O=P(O)(O)OC[C@H]1O[C@H](O[C@H]2O[C@H](CO)[C@@H](O)[C@H](O)[C@H]2O)[C@H](O)[C@@H](O)[C@@H]1O` [T-6-P, trehalose-6-phosphate], which “Hexokinase activity in mouse cell extracts” value (hexokinase; crude extract of mouse hybridoma cells) is on record?
**A.** is inhibited

**Q.** What about the “V2 (ODU/min)” value (hexokinase; [2]) of the same compound?
**A.** 0.0205 ODU/min

**Q.** And the “V2 (ODU/min)” value (hexokinase; [3])?
**A.** 0.0197 ODU/min

**Q.** What about the “V2 (ODU/min)” value (hexokinase; [4]) of the same compound?
**A.** 0.0151 ODU/min

**Q.** What about the “V2 (ODU/min)” value (hexokinase; [5]) of the same compound?
**A.** 0.0133 ODU/min

**Q.** What about the “V2 (ODU/min)” value (hexokinase; [6]) of the same compound?
**A.** 0.0133 ODU/min

**Q.** What about the “V2 (ODU/min)” value (hexokinase; [7]) of the same compound?
**A.** 0.0141 ODU/min

**Q.** And the “V2 (ODU/min)” value (hexokinase; [8])?
**A.** 0.0125 ODU/min

**Q.** What about the “Efficiency of hexokinase inhibition, glucose versus fructose as substrate” value (hexokinase; mouse cell extracts) of the same compound?
**A.** No difference

**Q.** And the “Inhibition (%)” value (hexokinase; [2])?
**A.** 1%

**Q.** And the “Inhibition (%)” value (hexokinase; [3])?
**A.** 26%

**Q.** And the “Inhibition (%)” value (hexokinase; [4])?
**A.** 35%

**Q.** And the “Inhibition (%)” value (hexokinase; [5])?
**A.** 46%

**Q.** And the “Inhibition (%)” value (hexokinase; [6])?
**A.** 35%

**Q.** What about the “Inhibition (%)” value (hexokinase; [7]) of the same compound?
**A.** 35%

**Q.** And the “Inhibition (%)” value (hexokinase; [8])?
**A.** 34%
